In one data set the target is Prothrombin (Homo sapiens, UniProt P00734). In words: Inhibitory activity against thrombin was measured by its ability to cleave the synthetic substrate S-2238(D-Phe-Pip-Arg-pNA). Particulars: read-out: I50.
Another data set concerns Caco-2. In words: compound was evaluated for their ability to cross a Caco-2-monolayer. The format is functional, cell-based. Particulars: Homo sapiens.
A short description of data set [1]: pKa value of the compound. It counts as physicochemical.

A value given as a limit tells only on which side of the number the result lay.

As to `CC1CCN(C(=O)[C@H](CCCNc2cnccn2)NS(=O)(=O)c2ccc3ccccc3c2)CC1`, the IC50 at Prothrombin was greater than 40 µM. The Permeability coefficient in the data set with Caco-2 was determined as 14.2 ×10⁻⁶ cm/s. For the same molecule, in data set [1], the pKa (in general, the pH at which an ionisable group is half protonated) was found to be 3.1.
For `CC1CCN(C(=O)[C@H](CCCNc2ccccn2)NS(=O)(=O)c2ccc3ccccc3c2)CC1`, the IC50 on Prothrombin came out at 5.5 µM. The same molecule returned a pKa in data set [1] of 6.9.
Consider `COc1ccc2ccc(S(=O)(=O)N[C@@H](CCCNc3ccccn3)C(=O)N3CCC(C)CC3)cc2c1`, for which the IC50 at Prothrombin stood at 0.47 µM. Moreover, in the data set with Caco-2, the Permeability coefficient is 3 ×10⁻⁶ cm/s. This molecule returned a pKa in data set [1] of 6.9.
The like results for `CC1CCN(C(=O)[C@H](CCCN=C(N)N)NS(=O)(=O)c2ccc3ccccc3c2)CC1` were, in that order, 2.5 µM, 0.4 ×10⁻⁶ cm/s and 14.
As to `COc1ccc2ccc(S(=O)(=O)N[C@@H](CCCNc3cccnn3)C(=O)N3CCC(C)CC3)cc2c1`, the IC50 on Prothrombin stood at 2.3 µM. The Permeability coefficient in the data set with Caco-2 worked out at 12.1 ×10⁻⁶ cm/s. The same molecule gave a pKa in data set [1] of 5.2.
The corresponding values for `CC1CCN(C(=O)[C@H](CCCNc2cccnn2)NS(=O)(=O)c2ccc3ccccc3c2)CC1` are 24 µM, 12.3 ×10⁻⁶ cm/s and 5.2.
On to `CC1CNc2c(cccc2S(=O)(=O)NC(CCCNC(=N)N)C(=O)N2CC[C@@H](C)C[C@@H]2C(=O)O)C1` (single isomer, unassigned) [ARGATROBAN], for which, in the data set on Caco-2, the Permeability coefficient worked out at 0.3 ×10⁻⁶ cm/s. This molecule also gave a pKa in data set [1] of 14.
As to `CC1CCN(C(=O)[C@H](CCCNc2ncccn2)NS(=O)(=O)c2ccc3ccccc3c2)CC1`, at Prothrombin, the IC50 is greater than 115 µM. In addition, in the data set on Caco-2, the Permeability coefficient was found to be 13.8 ×10⁻⁶ cm/s. In addition, in data set [1], the pKa was found to be 3.5.
